Results reported in patent publication US8952024B2, “Herbicidal pyrimidone derivatives” (E I du Pont de Nemours and Company, priority 2009, dated 2015).

Tests used:
Type in all cases: in vivo
corn (Zea mays) = assay: Test A pre-/postemergence plant response
Description: (§1) Seeds of barnyardgrass (Echinochloa crus-galli), large crabgrass (Digitaria sanguinalis), giant foxtail (Setaria faberii), morningglory (Ipomoea spp.), pigweed (Amaranthus retroflexus), velvetleaf (Abutilon theophrasti), wheat (Triticum aestivum) and corn (Zea mays) were planted into a blend of loam soil and sand and treated preemergence with a directed soil spray using test chemicals formulated in a non-phytotoxic solvent mixture which included a surfactant. At the same time these species were also treated with postemergence applications of test compounds formulated in the same manner.
(§2) Plants ranged in height from two to ten cm and were in the one- to two-leaf stage for the postemergence treatment. Treated plants and untreated controls were maintained in a greenhouse for approximately ten days, after which time all treated plants were compared to untreated controls and visually evaluated for injury. Plant response ratings, summarized in Table A, are based on a 0 to 100 scale where 0 is no effect and 100 is complete control. A dash (-) response means no test result.

[1] = tested on: large crabgrass (Digitaria sanguinalis); assay: Test A pre-/postemergence plant response
Description: as §1, §2

[2] = tested on: giant foxtail (Setaria faberii); assay: Test A pre-/postemergence plant response
Description: as §1, §2

[3] = tested on: wheat (Triticum aestivum); assay: Test A pre-/postemergence plant response
Description: as §1, §2

[4] = tested on: velvetleaf (Abutilon theophrasti); assay: Test A pre-/postemergence plant response
Description: as §1, §2

[5] = tested on: pigweed (Amaranthus retroflexus); assay: Test A pre-/postemergence plant response
Description: as §1, §2

[6] = tested on: barnyardgrass (Echinochloa crus-galli); assay: Test A pre-/postemergence plant response
Description: as §1, §2

[7] = tested on: morningglory (Ipomoea spp.); assay: Test A pre-/postemergence plant response
Description: as §1, §2

[8] = tested on: ducksalad (Heteranthera limosa); assay: Test B flooded paddy test; settings: for Plant response rating, Flood, Ducksalad: 250 g ai/ha, flooded paddy test, visual rating on 0 to 100 scale (0 no effect, 100 complete control) after 13 to 15 days; for Plant response rating, Ducksalad: Flood (flooded paddy test), 13 to 15 days
How it was run: (§3)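 Plants were grown to the 2-leaf stage, then pots were flooded to 3 cm above the soil and compounds were applied directly into the paddy water. That depth was held throughout. After 13 to 15 days in a greenhouse, injury was visually rated against controls on a 0–100 scale.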

[9] = tested on: umbrella sedge (Cyperus difformis); assay: Test B flooded paddy test; settings: for Plant response rating, Flood, Sedge, Umbrella: 250 g ai/ha, flooded paddy test, visual rating on 0 to 100 scale (0 no effect, 100 complete control) after 13 to 15 days; for Plant response rating, Sedge, Umbrella: Flood (flooded paddy test), 13 to 15 days
How it was run: as §3

rice (Oryza sativa) = assay: Test B flooded paddy test; settings: for Plant response rating, Flood, Rice: 250 g ai/ha, flooded paddy test, visual rating on 0 to 100 scale (0 no effect, 100 complete control) after 13 to 15 days; for Plant response rating, Rice: Flood (flooded paddy test), 13 to 15 days
How it was run: as §3

[10] = tested on: barnyardgrass (Echinochloa crus-galli); assay: Test B flooded paddy test; settings: for Plant response rating, Flood, Barnyardgrass: 250 g ai/ha, flooded paddy test, visual rating on 0 to 100 scale (0 no effect, 100 complete control) after 13 to 15 days; for Plant response rating, Barnyardgrass: Flood (flooded paddy test), 13 to 15 days
How it was run: as §3

[11] = Postemergence, 125 g ai/ha, 0 to 100 scale where 0 is no effect and 100 is complete control
[12] = Postemergence, 500 g ai/ha, 0 to 100 scale, 0 = no effect, 100 = complete control, approx. ten days
[13] = Preemergence, 125 g ai/ha, 0 to 100 scale, 0 = no effect, 100 = complete control
[14] = Preemergence, 500 g ai/ha, visual injury, 0 to 100 scale (0 no effect, 100 complete control), approx. ten days
[15] = 62 g ai/ha, scale of 0 to 100 where 0 is no effect and 100 is complete control
[16] = 125 g ai/ha, scale 0 to 100, 0 is no effect, 100 is complete control
[17] = Flood, 31 g ai/ha, scale 0 to 100 (0 no effect, 100 complete control)

O=C1CCCC(O)=C1C(=O)c1cnc(C2CCC2)n(-c2ccccc2)c1=O [Compound 114]
70: Plant response rating, Velvetleaf [4, 13] | Plant response rating, Barnyardgrass [6, 11]
30: Plant response rating, Barnyardgrass [6, 13] | Plant response rating, Sedge, Umbrella [9, 15]
100: Plant response rating, Crabgrass, Large [1, 14] | Plant response rating, Velvetleaf [4, 11] | Plant response rating, Velvetleaf [4, 12] | Plant response rating, Velvetleaf [4, 14] | Plant response rating, Pigweed [5, 11] | Plant response rating, Pigweed [5, 12] | Plant response rating, Pigweed [5, 13] | Plant response rating, Pigweed [5, 14] | Plant response rating, Morningglory [7, 12]
65: Plant response rating, Ducksalad [8, 15]
75: Plant response rating, Flood, Ducksalad [8]
40: Plant response rating, Foxtail, Giant [2, 13] | Plant response rating, Flood, Sedge, Umbrella [9] | Plant response rating, Flood, Barnyardgrass [10]
90: Plant response rating, Crabgrass, Large [1, 12] | Plant response rating, Crabgrass, Large [1, 13] | Plant response rating, Barnyardgrass [6, 12] | Plant response rating, Barnyardgrass [6, 14] | Plant response rating, Morningglory [7, 11]
10: Plant response rating, Corn (corn (Zea mays); [11])
20: Plant response rating, Wheat [3, 14] | Plant response rating, Flood, Rice (rice (Oryza sativa)) | Plant response rating, Barnyardgrass [10, 15]
50: Plant response rating, Corn (corn (Zea mays); [12])
60: Plant response rating, Foxtail, Giant [2, 11]
80: Plant response rating, Crabgrass, Large [1, 11] | Plant response rating, Foxtail, Giant [2, 12] | Plant response rating, Foxtail, Giant [2, 14] | Plant response rating, Morningglory [7, 14]
0: Plant response rating, Corn (corn (Zea mays); [13]) | Plant response rating, Corn (corn (Zea mays); [14]) | Plant response rating, Wheat [3, 11] | Plant response rating, Wheat [3, 12] | Plant response rating, Wheat [3, 13] | Plant response rating, Morningglory [7, 13] | Plant response rating, Rice (rice (Oryza sativa); [15])

CCn1c(-c2cccc(F)c2)ncc(C(=O)C2=C(O)CCCC2=O)c1=O [Compound 124]
50: Plant response rating, Foxtail, Giant [2, 11]
80: Plant response rating, Morningglory [7, 14]
40: Plant response rating, Foxtail, Giant [2, 14] | Plant response rating, Barnyardgrass [6, 11] | Plant response rating, Flood, Sedge, Umbrella [9]
0: Plant response rating, Corn (corn (Zea mays); [11]) | Plant response rating, Corn (corn (Zea mays); [13]) | Plant response rating, Corn (corn (Zea mays); [14]) | Plant response rating, Wheat [3, 11] | Plant response rating, Wheat [3, 12] | Plant response rating, Wheat [3, 13] | Plant response rating, Wheat [3, 14] | Plant response rating, Flood, Ducksalad [8] | Plant response rating, Ducksalad [8, 15] | Plant response rating, Ducksalad [8, 16] | Ducksalad plant response rating [8, 17] | Plant response rating, Sedge, Umbrella [9, 15] | Sedge, Umbrella plant response rating [9, 17] | Rice plant response rating (rice (Oryza sativa); [17]) | Plant response rating, Barnyardgrass [10, 15] | Plant response rating, Barnyardgrass [10, 16] | Barnyardgrass plant response rating [10, 17]
30: Plant response rating, Flood, Barnyardgrass [10]
20: Plant response rating, Corn (corn (Zea mays); [12]) | Plant response rating, Barnyardgrass [6, 13] | Plant response rating, Sedge, Umbrella [9, 16] | Plant response rating, Flood, Rice (rice (Oryza sativa)) | Plant response rating, Rice (rice (Oryza sativa); [16])
60: Plant response rating, Crabgrass, Large [1, 13] | Plant response rating, Barnyardgrass [6, 14] | Plant response rating, Morningglory [7, 13]
100: Plant response rating, Velvetleaf [4, 11] | Plant response rating, Velvetleaf [4, 12] | Plant response rating, Velvetleaf [4, 14] | Plant response rating, Pigweed [5, 12] | Plant response rating, Pigweed [5, 13] | Plant response rating, Pigweed [5, 14] | Plant response rating, Morningglory [7, 11] | Plant response rating, Morningglory [7, 12]
10: Plant response rating, Foxtail, Giant [2, 13]
90: Plant response rating, Crabgrass, Large [1, 12] | Plant response rating, Crabgrass, Large [1, 14] | Plant response rating, Pigweed [5, 11] | Plant response rating, Barnyardgrass [6, 12]
15: Plant response rating, Rice (rice (Oryza sativa); [15])
70: Plant response rating, Crabgrass, Large [1, 11] | Plant response rating, Foxtail, Giant [2, 12] | Plant response rating, Velvetleaf [4, 13]
